Source: patent US12559461B2, “Antibiotic adjuvant compounds” (UNIVERSITY OF NOTRE DAME DU LAC, priority 2020, dated 2026)
Read-outs that look alike come from different tables or passages of the source.

Key:
Type in all cases: cell-based, Acinetobacter baumannii
AB5075 [1] = assay: Broth microdilution MIC of compound alone (standalone toxicity)
Description: (§1) Bacterial Strains and Antimicrobial Agents. Acinetobacter baumannii clinical isolate 5075 was obtained from Dr. Colin Manoil at the University of Washington. Colonies were grown on lysogeny broth (LB) agar. Cation-adjusted Mueller-Hinton Broth (CAMHB) (catalog number 212322) were purchased from BD Diagnostics. LB broth was purchased from Fisher Scientific (catalog number BP9722-2). […] Colistin sulfate salt (catalog number C4461) was purchased from Sigma Aldrich. All assays were completed in duplicate and repeated at least two separate times. All compounds were dissolved as their HCl salts in molecular biology grade DMSO as 10 or 100 mM stock solutions and stored at −20° C. Colistin was dissolved in sterile water while clarithromycin was dissolved in molecular biology grade DMSO.
(§2) Broth microdilution method for MIC determination. Day cultures (6 h) of each bacterial strain in cation adjusted Mueller Hinton II broth (CAMHB, Fisher Scientific U.S.) were subcultured to 5×10^5 CFU/mL in CAMHB. Aliquots (1 mL) were placed in culture tubes and compound was added from 10 mM stock samples in DMSO, such that compound concentration equaled highest concentration tested (200 μM). Samples were then aliquoted (200 μL) into the first wells of a 96-well plate, with all remaining wells being filled with 100 μL of initial bacterial subculture. Row one wells were mixed five times, before 100 μL was transferred to row two. Row two was then mixed five times, and 100 μL was transferred to row three. This process was repeated until the final row had been mixed; this served to serially dilute the compound. Plates were then covered with GLAD Press n'Seal and incubated under stationary conditions at 37° C. for 16 h. MIC values were then recorded as the lowest concentration at which no bacterial growth was observed.

AB5075 [2] = assay: Broth microdilution clarithromycin (CLR) potentiation and dose-response of adjuvant
Description: as §1
(§3) Broth microdilution method for antibiotic potentiation. Day cultures (6 h) of bacteria in CAMHB were subcultured to 5×10^5 CFU/mL in CAMHB. Aliquots (4 mL) were placed in culture tubes and dosed with compound from 10 mM stock samples to give the desired concentration of the compound to be tested against the particular bacterial strain; this insured non-toxic DMSO concentrations ≤0.3% in each well. 1 mL of the resulting solution was placed in a separate culture and dosed with antibiotic at the highest concentration to be tested. Bacteria treated with antibiotic alone served as the control. Row one of a 96-well plate was filled with 200 μL of the antibiotic/2-AI solution, and rows 2-12 were filled with 100 μL each of the remaining 4 mL of bacterial subculture containing adjuvant at the desired concentration, except for the control lane which contained only bacterial subculture. Row one was then mixed five times, and 100 μL was transferred to row two, which was then mixed five times before being transferred to row three. This process was repeated until all rows had been mixed, except for row twelve which would have only 2-AI to serve as a control to monitor potential toxicity. The 96-well plate was then covered in Glad Press n'Seal and incubated under stationary conditions at 37° C. for 16 h. MIC values were determined as the lowest concentration at which no bacterial growth was observed, and fold reductions were determined by comparison to antibiotic control lane.
Dose-response of Adjuvant Assay. The procedure for ‘broth microdilution method for antibiotic potentiation’ was followed using 4 mL aliquots of adjuvant at various concentrations: 0, 5, 7.5, 10, 15, 20, 25, and 30 μM.

[3] = test system: A. baumannii isolates (23 strains); assay: Minimum inhibitory concentration against AB isolates; settings: Acinetobacter baumannii, compound alone, read-out: Minimum inhibitory concentration of compound
Description: as §2

[4] = test system: A. baumannii isolates (23 strains); assay: Clarithromycin potentiation against AB isolates; settings: adjuvant at 7.5 μM
Description: as §3

Cl.Nc1nc(-c2ccc(NC(=O)c3cc(Cl)cc(Cl)c3)cc2Cl)c[nH]1 [Compound 10e, N-(4-(2-amino-1H-imidazol-4-yl)-3-chlorophenyl)-3,5-dichlorobenzamide hydrochloride] was tested, and the MIC (AB5075 [1]; Acinetobacter baumannii) was > 200 µM, the “CLR MIC” value (AB5075 [2]; compound tested at 10 μM) was 8 µg/mL and the “CLR MIC” value (AB5075 [2]; compound tested at 20 μM) was 0.5 µg/mL. The “Fold Reduction of CLR MIC” value (AB5075 [2]; compound tested at 20 μM) was 64 fold, the “CLR MIC” value (AB5075 [2]; compound tested at 30 μM) was 0.5 µg/mL and the “Fold Reduction of CLR MIC” value (AB5075 [2]; compound tested at 30 μM) was 64 fold.

Cl.Nc1nc(-c2ccc(NC(=O)c3cc(Br)cc(Br)c3)cc2F)c[nH]1 [Compound 15a, N-(4-(2-amino-1H-imidazol-4-yl)-3-fluorophenyl)-3,5-dibromobenzamide hydrochloride] was tested, and the MIC (AB5075 [1]; Acinetobacter baumannii) was > 200 µM, the MIC (AB5075 [1]; hydrochloride) was >200 µM and the “CLR MIC” value (AB5075 [2]; compound tested at 10 μM) was 16 µg/mL. For the same compound, the “Fold Reduction of CLR MIC” value (AB5075 [2]; compound tested at 10 μM) was 2 fold, the “CLR MIC” value (AB5075 [2]; compound tested at 20 μM) was 8 µg/mL and the “Fold Reduction of CLR MIC” value (AB5075 [2]; compound tested at 20 μM) was 4 fold. The “CLR MIC” value (AB5075 [2]; compound tested at 30 μM) was 2 µg/mL and the “Fold Reduction of CLR MIC” value (AB5075 [2]; compound tested at 30 μM) was 16 fold.

With Cl.Nc1nc(-c2ccc(NC(=O)c3ccc(C(F)(F)F)c(Cl)c3)cc2F)c[nH]1 [Compound 17a, N-(4-(2-amino-1H-imidazol-4-yl)-3-fluorophenyl)-3-chloro-4-(trifluoromethyl)benzamide hydrochloride] the MIC (AB5075 [1]; Acinetobacter baumannii) was 50 µM, the “CLR MIC” value (AB5075 [2]; compound tested at 7.5 μM) was 16 µg/mL and the “CLR MIC” value (AB5075 [2]; compound tested at 10 μM) was 8 µg/mL. The “Fold Reduction of CLR MIC” value (AB5075 [2]; compound tested at 10 μM) was 4 fold, the “CLR MIC” value (AB5075 [2]; compound tested at 15 μM) was 0.25 µg/mL and the “Fold Reduction of CLR MIC” value (AB5075 [2]; compound tested at 15 μM) was 128 fold.

In the case of Cl.Nc1nc(-c2ccc(NC(=O)c3ccc(Cl)c(C(F)(F)F)c3)cc2F)c[nH]1 [Compound 17b, N-(4-(2-amino-1H-imidazol-4-yl)-3-fluorophenyl)-4-chloro-3-(trifluoromethyl)benzamide hydrochloride], the MIC (AB5075 [1]; Acinetobacter baumannii) is reported as 50 µM, the “CLR MIC” value (AB5075 [2]; compound tested at 7.5 μM) is reported as 8 µg/mL and the “Fold Reduction of CLR MIC” value (AB5075 [2]; compound tested at 7.5 μM) is reported as 4 fold. For the same compound, the “CLR MIC” value (AB5075 [2]; compound tested at 10 μM) was 2 µg/mL, the “Fold Reduction of CLR MIC” value (AB5075 [2]; compound tested at 10 μM) was 16 fold and the “CLR MIC” value (AB5075 [2]; compound tested at 15 μM) was 0.25 µg/mL. For the same compound, the “Fold Reduction of CLR MIC” value (AB5075 [2]; compound tested at 15 μM) was 128 fold.

For Cl.Nc1nc(-c2ccc(NC(=O)Nc3cc(Br)cc(Br)c3)cc2)c[nH]1 [Compound 20a, 1-(4-(2-amino-1H-imidazol-4-yl)phenyl)-3-(3,5-dibromophenyl)urea hydrochloride], the MIC ([3]; A. baumannii strain 3560) was 25 µM, the MIC ([3]; A. baumannii strain 3785) was 50 µM and the MIC ([3]; A. baumannii strain 3806) was 25 µM. For the same compound, the MIC ([3]; A. baumannii strain 3927) was 100 µM, the MIC ([3]; A. baumannii strain 4025) was 100 µM and the MIC ([3]; A. baumannii strain 4026) was 50 µM. The MIC ([3]; A. baumannii strain 4027) was 50 µM, the MIC ([3]; A. baumannii strain 4052) was 50 µM and the MIC ([3]; A. baumannii strain 4269) was 50 µM. The MIC ([3]; A. baumannii strain 4448) was 100 µM, the MIC ([3]; A. baumannii strain 4456) was 25 µM and the MIC ([3]; A. baumannii strain 4490) was 100 µM. For the same compound, the MIC ([3]; A. baumannii strain 4498) was 50 µM, the MIC ([3]; A. baumannii strain 4795) was 25 µM and the MIC ([3]; A. baumannii strain 4857) was 50 µM. The MIC ([3]; A. baumannii strain 4878) was 50 µM, the MIC ([3]; A. baumannii strain 4957) was 50 µM and the MIC ([3]; A. baumannii strain 4991) was 50 µM. The MIC ([3]; A. baumannii strain 5001) was 50 µM, the MIC ([3]; A. baumannii strain 5197) was 25 µM and the MIC ([3]; A. baumannii strain 5256) was 25 µM. It also gave an MIC ([3]; A. baumannii strain 5711) of 25 µM, an MIC ([3]; A. baumannii strain 8967) of 100 µM and an MIC (AB5075 [1]; Acinetobacter baumannii) of 50 µM. For the same compound, the “CLR MIC” value (AB5075 [2]; compound tested at 5 μM) was 4 µg/mL, the “Fold Reduction of CLR MIC” value (AB5075 [2]; compound tested at 5 μM) was 8 fold and the “CLR MIC” value (AB5075 [2]; compound tested at 7.5 μM) was 0.25 µg/mL. For the same compound, the “Fold Reduction of CLR MIC” value (AB5075 [2]; compound tested at 7.5 μM) was 128 fold, the “CLR MIC” value (AB5075 [2]; compound tested at 15 μM) was 0.125 µg/mL and the “Fold Reduction of CLR MIC” value (AB5075 [2]; compound tested at 15 μM) was 256 fold. For the same compound, the “CLR MIC + adjuvant” value ([4]; A. baumannii strain 3560) was 1 µg/mL, the “CLR MIC + adjuvant” value ([4]; A. baumannii strain 3785) was 1 µg/mL and the “CLR MIC + adjuvant” value ([4]; A. baumannii strain 3806) was 0.25 µg/mL. For the same compound, the “CLR MIC + adjuvant” value ([4]; A. baumannii strain 3927) was 0.5 µg/mL, the “CLR MIC + adjuvant” value ([4]; A. baumannii strain 4025) was 1 µg/mL and the “CLR MIC + adjuvant” value ([4]; A. baumannii strain 4026) was 1 µg/mL. For the same compound, the “CLR MIC + adjuvant” value ([4]; A. baumannii strain 4027) was 1 µg/mL, the “CLR MIC + adjuvant” value ([4]; A. baumannii strain 4052) was 0.5 µg/mL and the “CLR MIC + adjuvant” value ([4]; A. baumannii strain 4269) was 2 µg/mL. The “CLR MIC + adjuvant” value ([4]; A. baumannii strain 4448) was 0.5 µg/mL, the “CLR MIC + adjuvant” value ([4]; A. baumannii strain 4456) was 1 µg/mL and the “CLR MIC + adjuvant” value ([4]; A. baumannii strain 4490) was 1 µg/mL. The “CLR MIC + adjuvant” value ([4]; A. baumannii strain 4498) was 2 µg/mL, the “CLR MIC + adjuvant” value ([4]; A. baumannii strain 4795) was 0.5 µg/mL and the “CLR MIC + adjuvant” value ([4]; A. baumannii strain 4857) was 0.5 µg/mL. The “CLR MIC + adjuvant” value ([4]; A. baumannii strain 4878) was 0.5 µg/mL, the “CLR MIC + adjuvant” value ([4]; A. baumannii strain 4957) was 0.5 µg/mL and the “CLR MIC + adjuvant” value ([4]; A. baumannii strain 4991) was 0.5 µg/mL. For the same compound, the “CLR MIC + adjuvant” value ([4]; A. baumannii strain 5001) was 1 µg/mL, the “CLR MIC + adjuvant” value ([4]; A. baumannii strain 5197) was 1 µg/mL and the “CLR MIC + adjuvant” value ([4]; A. baumannii strain 5256) was 0.25 µg/mL. The “CLR MIC + adjuvant” value ([4]; A. baumannii strain 5711) was 1 µg/mL and the “CLR MIC + adjuvant” value ([4]; A. baumannii strain 8967) was 0.25 µg/mL.

For Cl.Nc1nc(-c2ccc(NC(=O)Nc3cc(Cl)cc(Cl)c3)cc2)c[nH]1 [Compound 20b, 1-(4-(2-amino-1H-imidazol-4-yl)phenyl)-3-(3,5-dichlorophenyl)urea hydrochloride], the MIC (AB5075 [1]; Acinetobacter baumannii) was 25 µM, the “CLR MIC” value (AB5075 [2]; compound tested at 5 μM) was 8 µg/mL and the “Fold Reduction of CLR MIC” value (AB5075 [2]; compound tested at 5 μM) was 4 fold. The “CLR MIC” value (AB5075 [2]; compound tested at 7.5 μM) was 0.5 µg/mL and the “Fold Reduction of CLR MIC” value (AB5075 [2]; compound tested at 7.5 μM) was 64 fold.

In the case of Cl.Nc1nc(-c2ccc(NC(=O)Nc3ccc(Cl)c(Cl)c3)cc2)c[nH]1 [Compound 20c, 1-(4-(2-amino-1H-imidazol-4-yl)phenyl)-3-(3,4-dichlorophenyl)urea hydrochloride], the MIC (AB5075 [1]; Acinetobacter baumannii) is reported as 100 µM, the “CLR MIC” value (AB5075 [2]; compound dosed at higher concentrations (≥20 μM)) is reported as ≤ 0.0625 µg/mL and the “CLR MIC” value (AB5075 [2]; compound tested at 5 μM) is reported as 8 µg/mL. For the same compound, the “Fold Reduction of CLR MIC” value (AB5075 [2]; compound tested at 5 μM) was 4 fold, the “CLR MIC” value (AB5075 [2]; compound tested at 7.5 μM) was 2 µg/mL and the “Fold Reduction of CLR MIC” value (AB5075 [2]; compound tested at 7.5 μM) was 16 fold. For the same compound, the “CLR MIC” value (AB5075 [2]; compound tested at 10 μM) was 0.25 µg/mL, the “Fold Reduction of CLR MIC” value (AB5075 [2]; compound tested at 10 μM) was 128 fold and the “CLR MIC” value (AB5075 [2]; compound tested at 20 μM) was ≤0.0625 µg/mL. The “Fold Reduction of CLR MIC” value (AB5075 [2]; compound tested at 20 μM) was ≥512 fold.
